Results reported in US8759364B2, “Methods of treating bone mass diseases” (The Trustees of Columbia University in the City of New York, priority 2008, dated 2014).
“Also recorded” adds a separate entry of the source.

Test system: Lrp5−/− mice
Assay: pCPA treatment of WT and Lrp5−/− mice (bone histomorphometry, serum serotonin, TPH1/TPH2 expression)
Format: in vivo
Method: Consistent with the conclusion that the increase in serum serotonin level is responsible fully or partly for the bone phenotype of the Lrp5−/− mice is the discovery that pCPA, a serotonin synthesis inhibitor (Eldridge et al., 1981, Ann. Rev. Physiol. 43:121-135), prevented the appearance of the Lrp5−/− bone phenotype by decreasing serotonin production. WT and Lrp5−/− mice were treated with 300 mg/kg pCPA intraperitoneally three times per week, from 3 weeks to 12 weeks of age (FIG. 7A) and the changes in serum serotonin levels, TPH1 expression in gut and TPH2 expression in brain stem were analyzed. Bone histomorphometry was also performed. […] This rescue of the Lrp5−/− phenotype was achieved by normalization of the gut TPH1 mRNA and of serum serotonin levels (FIGS. 7C and 7D).
Generation of Lrp5−/− (Kato et al., 2002, J. Cell Biol. 157:303-314) β-cateninfloxed/floxed (Glass et al., 2005, Dev. Cell 8:751-764), α1(I)collagen-cre transgenic (Dacquin et al., 2002, Dev. Dyn. 224:245-251) and Htt−/− (Ansorge et al., 2008, J. Neurosci. 28:199-207) mice were as described previously. Lrp5+/−;Htt+/− double heterozygous mice were generated by crossing Lrp5+/− and Htt+/− mice. Three week-old Wt or Lrp5−/− mice were administered pCPA on alternate days for 9 weeks by i.p. All animal protocols were approved by the Animal Care Committees of Columbia University.
Static histomorphometry measurements were performed as previously described in accordance with standard nomenclature, using the Osteomeasure Analysis System (Osteometrics, Inc) (Ducy et al., 2000, Cell 100:197-207). Four to 9 animals were assigned per group.
Serotonin serum levels were quantified using immunoassay kits from Fitzgerald (Serotonin) and serotonin levels in the different regions of the brain were quantified by HPLC method as described previously (Mann et al., 1992, Arch. Gen. Psychiatry 49:442-446).

[1] = 300 mg/kg pCPA i.p. three times per week, 3 to 12 weeks of age, FIG. 7

## NC(Cc1ccc(Cl)cc1)C(=O)O (centres unmarked) [pCPA, para-chlorophenylalanine]
300 mg/kg pCPA i.p. three times per week, 3 to 12 weeks of age
  bone mass in WT mice: without overtly affecting
[1]
  gut TPH1 mRNA in Lrp5−/− mice: normalization
  serum serotonin levels in Lrp5−/− mice: normalization; also recorded: normalizes
300 mg/kg pCPA i.p. three times per week, 3 to 12 weeks of age, histomorphometry, FIG. 7B
  bone abnormalities (low bone phenotype) of Lrp5−/− mice: corrected
Treated mice, 300 mg/kg pCPA i.p.
  Brain TPH2 mRNA levels: not affected
